Measurements taken from publication PMC8628145 (Cancer chemotherapy and pharmacology, 2021).
Several values for one entry are separate records, joined by “and”; a condition that tells them apart may be missing. Equal values may be shown once. Values belong to the compound of their own block, whether it stands above or below them.

How the values were obtained:
[1] = test system: beta-tubulin; assay: Skin biopsy immunohistochemistry, tubulin expression; type: in vivo, human; conditions: skin biopsies, oral tivantinib for two weeks (with bevacizumab), C1D15
[2] = molecular target: p-Tyr1234/5-Met (Homo sapiens, UniProt P08581); assay: Skin biopsy immunohistochemistry, p-MET expression; type: in vivo; conditions: skin biopsies following tivantinib (with bevacizumab), C1D15
[3] = molecular target: Met (Homo sapiens, UniProt P08581); assay: Skin biopsy immunohistochemistry, total MET expression; type: in vivo; conditions: skin biopsies after tivantinib treatment
[4] = test system: β-tubulin; assay: Total β-tubulin expression in patient PBMCs by immunoblot; type: in vivo, human; conditions: following tivantinib treatment, data not shown
[5] = test system: human RKO colon cancer cells; assay: Immunoblot of α- and β-tubulin expression in RKO cells; type: cell-based; conditions: supplemental Fig. 3A
[6] = test system: tubulin; assay: Tubulin polymerization assay; type: biochemical; conditions: supplemental Fig. 3B
[7] = test system: bFGF; assay: Plasma bFGF level; type: in vivo, human
[8] = test system: PlGF; assay: Plasma placental growth factor level; type: in vivo, human
[9] = test system: HGF; assay: Plasma HGF level; type: in vivo, human
[10] = test system: soluble VEGFR1 (sVEGFR1); assay: Plasma soluble VEGFR1 level; type: in vivo, human
[11] = test system: VEGF-A; assay: Plasma VEGF-A level; type: in vivo, human
[12] = human, in vivo, 1 day
[13] = day 5, previously reported; cited from earlier work
[14] = test system: CYP3A4; conditions: at 50 µM (~ 18 µg/mL); ArQule data on file; cited from earlier work
[15] = Plasma pharmacokinetics of tivantinib and metabolites; conditions: for Cl/F: first dose, based on AUC0–inf; for half-life: t½
[16] = addition of tivantinib to bevacizumab

Chain of p-Tyr1234/5-Met (P08581 25-1390): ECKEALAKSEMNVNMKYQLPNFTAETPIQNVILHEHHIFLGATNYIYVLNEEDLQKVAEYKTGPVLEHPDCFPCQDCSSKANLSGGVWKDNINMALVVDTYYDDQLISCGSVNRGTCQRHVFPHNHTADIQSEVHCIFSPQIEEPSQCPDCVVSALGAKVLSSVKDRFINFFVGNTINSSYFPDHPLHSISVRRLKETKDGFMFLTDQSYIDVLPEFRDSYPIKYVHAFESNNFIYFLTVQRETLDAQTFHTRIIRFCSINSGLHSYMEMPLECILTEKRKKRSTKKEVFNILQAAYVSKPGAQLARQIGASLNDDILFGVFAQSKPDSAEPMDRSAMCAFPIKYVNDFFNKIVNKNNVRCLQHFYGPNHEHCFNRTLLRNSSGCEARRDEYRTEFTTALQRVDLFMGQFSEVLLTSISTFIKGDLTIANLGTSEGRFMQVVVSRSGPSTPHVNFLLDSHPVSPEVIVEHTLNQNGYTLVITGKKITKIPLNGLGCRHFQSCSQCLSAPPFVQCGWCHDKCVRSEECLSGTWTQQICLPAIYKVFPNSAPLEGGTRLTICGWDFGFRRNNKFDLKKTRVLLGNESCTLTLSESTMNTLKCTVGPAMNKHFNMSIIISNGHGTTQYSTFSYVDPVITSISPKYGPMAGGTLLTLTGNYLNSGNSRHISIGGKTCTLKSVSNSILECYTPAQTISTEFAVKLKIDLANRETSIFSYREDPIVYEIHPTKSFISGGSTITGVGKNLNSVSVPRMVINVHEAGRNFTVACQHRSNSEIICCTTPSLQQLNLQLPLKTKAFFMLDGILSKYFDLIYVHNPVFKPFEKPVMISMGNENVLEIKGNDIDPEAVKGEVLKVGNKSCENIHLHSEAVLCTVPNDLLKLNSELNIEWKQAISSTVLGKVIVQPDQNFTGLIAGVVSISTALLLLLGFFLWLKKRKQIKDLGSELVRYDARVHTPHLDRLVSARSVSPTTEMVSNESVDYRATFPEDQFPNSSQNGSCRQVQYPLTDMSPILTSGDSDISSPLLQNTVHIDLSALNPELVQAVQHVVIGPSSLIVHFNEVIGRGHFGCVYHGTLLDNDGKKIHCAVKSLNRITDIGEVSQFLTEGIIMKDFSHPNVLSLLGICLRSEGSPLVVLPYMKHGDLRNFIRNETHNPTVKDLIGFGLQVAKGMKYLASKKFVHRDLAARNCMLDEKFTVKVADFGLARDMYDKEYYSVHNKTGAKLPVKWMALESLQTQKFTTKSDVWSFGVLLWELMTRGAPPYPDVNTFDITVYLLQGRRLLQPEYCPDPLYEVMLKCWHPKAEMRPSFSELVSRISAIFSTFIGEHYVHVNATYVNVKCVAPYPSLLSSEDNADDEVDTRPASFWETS
Chain of Met (P08581 25-1390): as above

Patients with reduced p-MET expression in skin [2]: 7/11 and 7 of 11
Total MET expression in the cytoplasm (skin) [3]: remained unchanged
Dose-normalised exposure on day 1 [12]: 5.82 ng/mL/mg
t½ ([15]; Total (N = 11), all dose levels, day 1, plasma, mean (SD)): 5.1 (2.4) h
Cl/F ([15]; Total (N = 11), mean (SD)): 24.9 L/h
AUC(0-t) ([15]; human, plasma, oral, AUC0–8, tivantinib 360/240 mg AM/PM (N = 1), day 1, plasma): 5.02 µg·h/mL
Tmax ([15]; human, plasma, oral, Tmax, tivantinib 120/120 mg AM/PM (N = 1), day 1, plasma): 2.5 h
Tmax ([15]; human, plasma, oral, Tmax, tivantinib 360/240 mg AM/PM (N = 1), day 1, plasma): 3 h
half-life ([15]; human, plasma, oral, tivantinib 120/120 mg AM/PM (N = 1), day 1, plasma): 8.2 h
half-life ([15]; human, plasma, oral, tivantinib 360/240 mg AM/PM (N = 1), day 1, plasma): 9.2 h
Tmax ([15]; human, plasma, po, Time of peak plasma concentration, day 1, all 11 patients): ~3 h
AUC0–8 ([15]; tivantinib 120/120 mg AM/PM (N = 1), day 1, plasma): 5.57 µg·h/mL
Cl/F ([15]; tivantinib 120/120 mg AM/PM (N = 1)): 9.43 L/h
Cl/F ([15]; tivantinib 360/240 mg AM/PM (N = 1)): 25.8 L/h
Time for accumulation to reach steady-state ([15]; twice daily dosing): ≤ 24 h
Compound: O=C1NC(=O)[C@@H](c2cn3c4c(cccc24)CCC3)[C@@H]1c1c[nH]c2ccccc12 [tivantinib]
Patients with substantial reductions in tubulin expression in skin [1]: 4/11 and 4 of 11
Tubulin expression in patient PBMCs [4]: No significant differences
α- and β-tubulin protein expression [5]: loss of both α- and β-tubulin protein expression
Tubulin polymerization [6]: inhibited tubulin polymerization, but not to the same extent as vincristine
Plasma bFGF concentrations ([7]; day 15, following 14 days of tivantinib added to bevacizumab, p = 0.047): returned to baseline in most patients
Plasma PIGF concentrations [8, 16]: did not alter PIGF concentrations
Plasma HGF concentrations ([9]; addition of tivantinib, in the six patients with increase after bevacizumab): decreased in these same patients
Plasma sVEGFR1 concentrations ([10]; following tivantinib administration): increased in four patients
Plasma VEGF-A concentrations [11, 16]: did not alter VEGF-A concentrations
Steady-state clearance [13]: 11.8 L/h
Time-dependent inhibition of CYP3A4 [14]: exhibits time-dependent inhibition

Compound: bevacizumab [reference compound]
Patients with increased plasma bFGF ([7]; after bevacizumab-only lead-in (day 1 vs day − 15), p = 0.008): 8 of 11
Average increase of plasma PIGF ([8]; after bevacizumab treatment): 60%
Patients with increased plasma PIGF ([8]; after bevacizumab treatment, p = 0.005): 10 of 11
Plasma HGF concentrations ([9]; after bevacizumab treatment): increased in six patients
Plasma sVEGFR1 concentrations ([10]; after bevacizumab administration, five patients with elevated baseline): decreased
Plasma VEGF-A ([11]; after bevacizumab treatment): decreased expression of VEGF-A in two patients (#01; #07) and increases in eight patients

Compound: CC[C@]1(O)C[C@H]2CN(CCc3c([nH]c4ccccc34)[C@@](C(=O)OC)(c3cc4c(cc3OC)N(C=O)[C@H]3[C@@](O)(C(=O)OC)[C@H](OC(C)=O)[C@]5(CC)C=CCN6CC[C@]43[C@@H]65)C2)C1 [vincristine, reference compound]
α- and β-tubulin protein expression [5]: loss of both α- and β-tubulin protein expression
